This note sets out measurements from PMC3401268 (Bioorganic & medicinal chemistry, 2012).

The target in assay [1] is T1, α-synuclein fibrils (Homo sapiens, UniProt P37840). The experiment in a line: ThT saturation binding to α-synuclein fibrils. Particulars: Tris buffer 30 mM pH 7.4.
For assay [2], the target named is T1, α-synuclein fibrils.

As for `Cc1ccc2c(c1)sc(-c1ccc(N(C)C)cc1)[n+]2C` [ThT, Thioflavin T], in assay [1], the “Bmax of ThT binding to α-synuclein fibrils” value came out at 5672 afu.

In the case of `CCc1cc(Cl)c(OC)c(C(=O)NC[C@@H]2CCCN2CC)c1O.Cl` [eticlopride hydrochloride], in assay [2], the “Competition for ThT in the assay (specificity control)” value is “no significant competition”.
